IC50 and Activity data for 3 compounds are collected here from ChEMBL document CHEMBL1145546, “Interactive effects of polymethoxy flavones from Citrus on cell growth inhibition in human neuroblastoma SH-SY5Y cells” (Bioorg Med Chem, 2008).

In general, pIC50 refers to the IC50 on a negative log10 scale, so that one unit is a factor of ten.

For assay [1], the system named is SH-SY5Y. As to the kind of experiment: Growth inhibition of human SHSY5Y cells assessed as viable cells after 48 hrs by Trypan blue dye exclusion test. In kind it is functional, cell-based.
The test system of assay [2] is SH-SY5Y. As to the kind of experiment: Reduction of hydrogen peroxide-induced apoptotic cell death in human SHSY5Y cells after 12 hrs. It counts as functional. The arrangement: scale not given: the % may be the effect or the level left.
In assay [3] the test system is SH-SY5Y. Description: Reduction of hydrogen peroxide-induced apoptotic cell death in human SHSY5Y cells assessed as DNA ladder formation after 12 hrs. In kind it is functional, cell-based.
For assay [4], the system named is SH-SY5Y. Description: Elevation of phosphorylated ERK level in hydrogen peroxide-treated human SHSY5Y cells at 30 uM after 3 hrs by Western blot analysis. In kind it is functional, cell-based. (In western blotting, separated proteins are transferred to a membrane and probed.)
Assay [5] relates to SH-SY5Y. As to the kind of experiment: Elevation of phosphorylated p38 level in hydrogen peroxide-treated human SHSY5Y cells at 30 uM after 3 hrs by Western blot analysis. In kind it is functional, cell-based.
Assay [6] deals with SH-SY5Y. Description: Elevation of phosphorylated JNk level in hydrogen peroxide-treated human SHSY5Y cells at 30 uM after 3 hrs by Western blot analysis. In kind it is functional, cell-based.

Molecules are shown by their SMILES. pIC50: −log10 of the molar value. Calls of active or inactive are those of the source. The calls are words filed in the database; no cut-off is given here.

For the compound `COc1ccc(-c2cc(=O)c3c(O)c(OC)c(OC)c(OC)c3o2)cc1OC` [5-DEMETHYLNOBILETIN], the pIC50 in assay [1] was 4.49.
The compound `COc1ccc(-c2cc(=O)c3c(OC)c(OC)c(OC)c(OC)c3o2)cc1OC` [NOBILETIN] showed an Activity in assay [2] of 30%. Moreover, the outcome in assay [3], in assay [4], in assay [5] and in assay [6] was Active.
Turning to `COc1ccc(-c2cc(=O)c3c(OC)c(OC)c(OC)c(OC)c3o2)cc1` [TANGERETIN], in assay [1], the pIC50 was 4.39.
